Measured values as given in the supplement of paper PMC10307832.

Legend:
Test in all cases: relative viability (nuclei count vs DMSO), 5 days (fraction); higher = more cells survive
ABC-1 = test system: ABC-1
Summary of the method: (§1)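 Lung cancer cell lines were pin-tool dosed in 1536-well plates on the day after seeding, with either a lone drug or a fixed anchor-drug dose plus five library-drug doses (not always all listed) in √10 steps. Nuclei were counted on 4× images after 5 days. Relative viability is the ratio of treated-well to vehicle-well nuclei counts, with each value a median of duplicate plates.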

COR-L23 = test system: COR-L23
Summary of the method: as §1

H3255 = test system: H3255
Summary of the method: as §1

HCC-15 = test system: HCC-15
Summary of the method: as §1

HCC-366 = test system: HCC-366
Summary of the method: as §1

HCC-827 = test system: HCC-827
Summary of the method: as §1

LC-2-ad = test system: LC-2-ad
Summary of the method: as §1

LXF-289 = test system: LXF-289
Summary of the method: as §1

NCI-H1437 = test system: NCI-H1437
Summary of the method: as §1

NCI-H1666 = test system: NCI-H1666
Summary of the method: as §1

NCI-H1975 = test system: NCI-H1975
Summary of the method: as §1

NCI-H2009 = test system: NCI-H2009
Summary of the method: as §1

NCI-H2085 = test system: NCI-H2085
Summary of the method: as §1

NCI-H2087 = test system: NCI-H2087
Summary of the method: as §1

NCI-H2228 = test system: NCI-H2228
Summary of the method: as §1

NCI-H23 = test system: NCI-H23
Summary of the method: as §1

NCI-H661 = test system: NCI-H661
Summary of the method: as §1

PC-14 = test system: PC-14
Summary of the method: as §1

PC-3 [JPC-3] = test system: PC-3 [JPC-3]
Summary of the method: as §1

SK-MES-1 = test system: SK-MES-1
Summary of the method: as §1

UMC-11 = test system: UMC-11
Summary of the method: as §1

In the case of `Nc1cccc2c1CN(C1CCC(=O)NC1=O)C2=O` (configuration not stated) [Lenalidomide] + CS(=O)(=O)CCNCc1ccc(-c2ccc3ncnc(Nc4ccc(OCc5cccc(F)c5)c(Cl)c4)c3c2)o1 [Lapatinib] (partner 2 µM), the relative viability (ABC-1; first compound 0.253 µM) is reported as 1.13, the relative viability (ABC-1; first compound 2.53 µM) is reported as 1.11 and the relative viability (ABC-1; first compound 8 µM) is reported as 1.34. The relative viability (COR-L23; first compound 0.253 µM) was 1.05, the relative viability (COR-L23; first compound 0.8 µM) was 0.935 and the relative viability (COR-L23; first compound 2.53 µM) was 1.29. For the same compound, the relative viability (COR-L23; first compound 8 µM) was 1.2, the relative viability (H3255; first compound 0.253 µM) was 0.237 and the relative viability (H3255; first compound 0.8 µM) was 0.191. It also gave a relative viability (H3255; first compound 2.53 µM) of 0.317, a relative viability (H3255; first compound 8 µM) of 0.227 and a relative viability (HCC-15; first compound 0.253 µM) of 0.902. It also gave a relative viability (HCC-15; first compound 2.53 µM) of 1.07, a relative viability (HCC-15; first compound 8 µM) of 0.841 and a relative viability (HCC-366; first compound 0.253 µM) of 1.03. It also gave a relative viability (HCC-366; first compound 0.8 µM) of 1.1, a relative viability (HCC-366; first compound 2.53 µM) of 1.03 and a relative viability (HCC-366; first compound 8 µM) of 1.07. It also gave a relative viability (HCC-827; first compound 0.253 µM) of 0.189, a relative viability (HCC-827; first compound 0.8 µM) of 0.202 and a relative viability (HCC-827; first compound 2.53 µM) of 0.151. It also gave a relative viability (HCC-827; first compound 8 µM) of 0.185, a relative viability (LC-2-ad; first compound 0.253 µM) of 0.941 and a relative viability (LC-2-ad; first compound 0.8 µM) of 0.96. The relative viability (LC-2-ad; first compound 2.53 µM) was 1.05, the relative viability (LC-2-ad; first compound 8 µM) was 1 and the relative viability (LXF-289; first compound 0.253 µM) was 0.928. It also gave a relative viability (LXF-289; first compound 0.8 µM) of 0.882, a relative viability (LXF-289; first compound 2.53 µM) of 0.991 and a relative viability (LXF-289; first compound 8 µM) of 0.957. For the same compound, the relative viability (NCI-H1437; first compound 0.253 µM) was 0.692, the relative viability (NCI-H1437; first compound 0.8 µM) was 0.758 and the relative viability (NCI-H1437; first compound 2.53 µM) was 1.11. The relative viability (NCI-H1437; first compound 8 µM) was 0.914, the relative viability (NCI-H1666; first compound 0.253 µM) was 0.788 and the relative viability (NCI-H1666; first compound 0.8 µM) was 0.295. It also gave a relative viability (NCI-H1666; first compound 2.53 µM) of 0.847, a relative viability (NCI-H1666; first compound 8 µM) of 0.513 and a relative viability (NCI-H1975; first compound 0.253 µM) of 0.897. It also gave a relative viability (NCI-H1975; first compound 0.8 µM) of 0.799, a relative viability (NCI-H1975; first compound 2.53 µM) of 1.07 and a relative viability (NCI-H1975; first compound 8 µM) of 0.909. The relative viability (NCI-H2009; first compound 0.253 µM) was 0.919, the relative viability (NCI-H2009; first compound 0.8 µM) was 0.947 and the relative viability (NCI-H2009; first compound 2.53 µM) was 1.25. It also gave a relative viability (NCI-H2009; first compound 8 µM) of 1.25, a relative viability (NCI-H2085; first compound 0.253 µM) of 0.731 and a relative viability (NCI-H2085; first compound 0.8 µM) of 0.538. For the same compound, the relative viability (NCI-H2085; first compound 2.53 µM) was 0.912, the relative viability (NCI-H2085; first compound 8 µM) was 0.477 and the relative viability (NCI-H2087; first compound 0.253 µM) was 1.01. For the same compound, the relative viability (NCI-H2087; first compound 0.8 µM) was 0.78, the relative viability (NCI-H2087; first compound 2.53 µM) was 1.07 and the relative viability (NCI-H2087; first compound 8 µM) was 1.09. It also gave a relative viability (NCI-H2228; first compound 0.253 µM) of 0.997, a relative viability (NCI-H2228; first compound 0.8 µM) of 0.864 and a relative viability (NCI-H2228; first compound 2.53 µM) of 1.59. It also gave a relative viability (NCI-H2228; first compound 8 µM) of 0.958, a relative viability (NCI-H23; first compound 0.253 µM) of 1.05 and a relative viability (NCI-H23; first compound 0.8 µM) of 1. It also gave a relative viability (NCI-H23; first compound 2.53 µM) of 1.16, a relative viability (NCI-H23; first compound 8 µM) of 0.781 and a relative viability (NCI-H661; first compound 0.253 µM) of 0.428. It also gave a relative viability (NCI-H661; first compound 0.8 µM) of 0.501, a relative viability (NCI-H661; first compound 2.53 µM) of 0.479 and a relative viability (NCI-H661; first compound 8 µM) of 0.495. The relative viability (PC-14; first compound 0.253 µM) was 0.294, the relative viability (PC-14; first compound 0.8 µM) was 0.32 and the relative viability (PC-14; first compound 2.53 µM) was 0.4. For the same compound, the relative viability (PC-14; first compound 8 µM) was 0.302, the relative viability (PC-3 [JPC-3]; first compound 0.253 µM) was 0.515 and the relative viability (PC-3 [JPC-3]; first compound 0.8 µM) was 0.377. It also gave a relative viability (PC-3 [JPC-3]; first compound 2.53 µM) of 0.496, a relative viability (PC-3 [JPC-3]; first compound 8 µM) of 0.389 and a relative viability (SK-MES-1; first compound 0.253 µM) of 0.416. It also gave a relative viability (SK-MES-1; first compound 0.8 µM) of 0.397, a relative viability (SK-MES-1; first compound 2.53 µM) of 0.536 and a relative viability (SK-MES-1; first compound 8 µM) of 0.391. For the same compound, the relative viability (UMC-11; first compound 0.253 µM) was 1.1, the relative viability (UMC-11; first compound 0.8 µM) was 0.803 and the relative viability (UMC-11; first compound 2.53 µM) was 1.04. For the same compound, the relative viability (UMC-11; first compound 8 µM) was 0.791.
